# Activity calls are given as the source filed them. No cut-off for these calls is given here.
# Columns and labels:
# Streptococcus pneumoniae [1] = assay: Inhibition of DHPS in Streptococcus pneumoniae assessed as antibacterial activity by measuring inhibition zone at 5 mg/mL incubated for 24 hrs by disk diffusion method
# Bacillus subtilis [2] = assay: Inhibition of DHPS in Bacillus subtilis assessed as antibacterial activity by measuring inhibition zone at 5 mg/mL incubated for 24 hrs by disk diffusion method
# [3] = test system: Staphylococcus epidermidis; assay: Inhibition of DHPS in Staphylococcus epidermidis assessed as antibacterial activity by measuring inhibition zone at 5 mg/mL incubated for 24 hrs by disk diffusion method
# Escherichia coli [4] = assay: Inhibition of DHPS in Escherichia coli assessed as antibacterial activity by measuring inhibition zone at 5 mg/mL incubated for 24 hrs by disk diffusion method
# Proteus vulgaris [5] = assay: Inhibition of DHPS in Proteus vulgaris assessed as antibacterial activity by measuring inhibition zone at 5 mg/mL incubated for 24 hrs by disk diffusion method
# Klebsiella pneumoniae [6] = assay: Inhibition of DHPS in Klebsiella pneumoniae assessed as antibacterial activity by measuring inhibition zone at 5 mg/mL incubated for 24 hrs by disk diffusion method
# Streptococcus pneumoniae [7] = assay: Inhibition of DHPS in Streptococcus pneumoniae assessed as antibacterial activity by measuring inhibition of bacterial growth incubated for 24 hrs by microbroth dilution method
# Bacillus subtilis [8] = assay: Inhibition of DHPS in Bacillus subtilis assessed as antibacterial activity by measuring inhibition of bacterial growth incubated for 24 hrs by microbroth dilution method
# [9] = test system: Staphylococcus epidermidis; assay: Inhibition of DHPS in Staphylococcus epidermidis assessed as antibacterial activity by measuring inhibition of bacterial growth incubated for 24 hrs by microbroth dilution method
# Escherichia coli [10] = assay: Inhibition of DHPS in Escherichia coli assessed as antibacterial activity by measuring inhibition of bacterial growth incubated for 24 hrs by microbroth dilution method
# Proteus vulgaris [11] = assay: Inhibition of DHPS in Proteus vulgaris assessed as antibacterial activity by measuring inhibition of bacterial growth incubated for 24 hrs by microbroth dilution method
# Klebsiella pneumoniae [12] = assay: Inhibition of DHPS in Klebsiella pneumoniae assessed as antibacterial activity by measuring inhibition of bacterial growth incubated for 24 hrs by microbroth dilution method
# Aspergillus fumigatus [13] = assay: Inhibition of DHPS in Aspergillus fumigatus assessed as antifungal activity by measuring inhibition zone at 5 mg/mL incubated for 48 hrs by disk diffusion method
# [14] = test system: Syncephalastrum racemosum; assay: Inhibition of DHPS in Syncephalastrum racemosum assessed as antifungal activity by measuring inhibition zone at 5 mg/mL incubated for 48 hrs by disk diffusion method
# Geotrichum candidum [15] = assay: Inhibition of DHPS in Geotrichum candidum assessed as antifungal activity by measuring inhibition zone at 5 mg/mL incubated for 48 hrs by disk diffusion method
# Aspergillus fumigatus [16] = assay: Inhibition of DHPS in Aspergillus fumigatus assessed as antifungal activity by measuring inhibition of fungal growth incubated for 48 hrs by microbroth dilution method
# [17] = test system: Syncephalastrum racemosum; assay: Inhibition of DHPS in Syncephalastrum racemosum assessed as antifungal activity by measuring inhibition of fungal growth incubated for 48 hrs by microbroth dilution method
# Geotrichum candidum [18] = assay: Inhibition of DHPS in Geotrichum candidum assessed as antifungal activity by measuring inhibition of fungal growth incubated for 48 hrs by microbroth dilution method
# [19] = test system: Escherichia coli ATCC 25922; assay: Inhibition of DHPS in Escherichia coli ATCC 25922 assessed as inhibition of bacterial growth incubated for 24 hrs in presence of folate precursor, pABA by microbroth dilution method
# [20] = test system: Escherichia coli ATCC 25922; assay: Inhibition of DHPS in Escherichia coli ATCC 25922 assessed as inhibition of bacterial growth incubated for 24 hrs in presence of folate dependent metabolite, methionine by microbroth dilution method
# [21] = test system: Syncephalastrum racemosum; assay: Potency index, ratio of amphotericin B MIC to compound MIC for Syncephalastrum racemosum assessed as inhibition of DHPS-mediated fungal growth incubated for 48 hrs by microbroth dilution method
# Bacillus subtilis [22] = assay: Potency index, ratio of ampicillin MIC to compound MIC for Bacillus subtilis assessed as inhibition of DHPS-mediated bacterial growth incubated for 24 hrs by microbroth dilution method
# Escherichia coli [23] = assay: Potency index, ratio of gentamycin MIC to compound MIC for Escherichia coli assessed as inhibition of DHPS-mediated bacterial growth incubated for 24 hrs by microbroth dilution method
# Aspergillus fumigatus [24] = assay: Potency index, ratio of sulfisoxazole MIC to compound MIC for Aspergillus fumigatus assessed as inhibition of DHPS-mediated fungal growth incubated for 48 hrs by microbroth dilution method
# Escherichia coli [25] = assay: Potency index, ratio of sulfisoxazole MIC to compound MIC for Escherichia coli assessed as inhibition of DHPS-mediated bacterial growth incubated for 24 hrs by microbroth dilution method
# [26] = test system: Syncephalastrum racemosum; assay: Potency index, ratio of sulfisoxazole MIC to compound MIC for Syncephalastrum racemosum assessed as inhibition of DHPS-mediated fungal growth incubated for 48 hrs by microbroth dilution method
# hTERT-BJ = assay: Cytotoxicity against human hTERT-BJ1 cells at 50 uM by acid phosphatase assay relative to control; assay type: cell-based
# Klebsiella pneumoniae [27] = assay: Potency index, ratio of sulfisoxazole MIC to compound MIC for Klebsiella pneumoniae assessed as inhibition of DHPS-mediated bacterial growth incubated for 24 hrs by microbroth dilution method
# Geotrichum candidum [28] = assay: Potency index, ratio of sulfisoxazole MIC to compound MIC for Geotrichum candidum assessed as inhibition of DHPS-mediated fungal growth incubated for 48 hrs by microbroth dilution method
# [29] = test system: Staphylococcus epidermidis; assay: Potency index, ratio of sulfisoxazole MIC to compound MIC for Staphylococcus epidermidis assessed as inhibition of DHPS-mediated bacterial growth incubated for 24 hrs by microbroth dilution method
# Bacillus subtilis [30] = assay: Potency index, ratio of sulfisoxazole MIC to compound MIC for Bacillus subtilis assessed as inhibition of DHPS-mediated bacterial growth incubated for 24 hrs by microbroth dilution method
SMILES,inhibition zone (IZ) (Streptococcus pneumoniae [1]),inhibition zone (IZ) (Bacillus subtilis [2]),inhibition zone (IZ) [3],inhibition zone (IZ) (Escherichia coli [4]),inhibition zone (IZ) (Proteus vulgaris [5]),inhibition zone (IZ) (Klebsiella pneumoniae [6]),MIC (Streptococcus pneumoniae [7]),MIC (Bacillus subtilis [8]),MIC [9],MIC (Escherichia coli [10]),MIC (Proteus vulgaris [11]),MIC (Klebsiella pneumoniae [12]),inhibition zone (IZ) (Aspergillus fumigatus [13]),inhibition zone (IZ) [14],inhibition zone (IZ) (Geotrichum candidum [15]),MIC (Aspergillus fumigatus [16]),MIC [17],MIC (Geotrichum candidum [18]),inhibition [19],inhibition [20],also measured
C=CCN/C(SCC)=C(/C#N)C(=O)Nc1ccc(S(=O)(=O)Nc2onc(C)c2C)cc1,24.9 mm,26.8 mm,24.2 mm,21.8 mm,20.7 mm,24.7 mm,0.12 µg/mL,0.12 µg/mL,0.25 µg/mL,0.98 µg/mL,3.9 µg/mL,0.25 µg/mL,22.9 mm,22.4 mm,22.1 mm,0.49 µg/mL,0.98 µg/mL,1.95 µg/mL,inactive,inactive,Ratio [21]: 3; Ratio (Bacillus subtilis [22]): 2; Ratio (Escherichia coli [23]): 2
CCN/C(S[C@@H]1O[C@H](COC(C)=O)[C@H](OC(C)=O)[C@H](OC(C)=O)[C@H]1OC(C)=O)=C(/C#N)C(=O)Nc1ccc(S(=O)(=O)Nc2onc(C)c2C)cc1,18.9 mm,17.6 mm,16.3 mm,17.1 mm,13.4 mm,19.8 mm,7.8 µg/mL,7.8 µg/mL,31.2 µg/mL,7.81 µg/mL,125 µg/mL,7.81 µg/mL,17.2 mm,15.9 mm,18.3 mm,15.6 µg/mL,31.2 µg/mL,31.2 µg/mL,inactive,inactive,Ratio (Aspergillus fumigatus [24]): 1 to 3; Ratio (Escherichia coli [25]): 3; Ratio [26]: 1 to 3
CCN/C(SCC)=C(/C#N)C(=O)Nc1ccc(S(=O)(=O)Nc2onc(C)c2C)cc1,24.3 mm,26.3 mm,22.8 mm,20.6 mm,19.6 mm,23.2 mm,0.12 µg/mL,0.12 µg/mL,0.49 µg/mL,1.95 µg/mL,3.9 µg/mL,0.49 µg/mL,21.6 mm,20.3 mm,20.4 mm,0.98 µg/mL,3.9 µg/mL,3.9 µg/mL,inactive,inactive,Activity (hTERT-BJ): 8.5%; Ratio [21]: 2; Ratio (Bacillus subtilis [22]): 2
C=CCN/C(S[C@@H]1O[C@H](COC(C)=O)[C@H](OC(C)=O)[C@H](OC(C)=O)[C@H]1OC(C)=O)=C(/C#N)C(=O)Nc1ccc(S(=O)(=O)Nc2onc(C)c2C)cc1,19.3 mm,20.8 mm,17.1 mm,18.3 mm,15.2 mm,21.2 mm,3.9 µg/mL,0.98 µg/mL,15.6 µg/mL,7.81 µg/mL,62.5 µg/mL,0.98 µg/mL,18.3 mm,17.2 mm,20.2 mm,7.81 µg/mL,15.6 µg/mL,3.9 µg/mL,inactive,inactive,Activity (hTERT-BJ): 28.6%; Ratio (Aspergillus fumigatus [24]): 1 to 3; Ratio (Klebsiella pneumoniae [27]): 4; Ratio (Escherichia coli [25]): 3; Ratio (Geotrichum candidum [28]): 2; Ratio [26]: 1 to 3
CN/C(S[C@@H]1O[C@H](COC(C)=O)[C@H](OC(C)=O)[C@H](OC(C)=O)[C@H]1OC(C)=O)=C(/C#N)C(=O)Nc1ccc(S(=O)(=O)Nc2onc(C)c2C)cc1,17.3 mm,16.8 mm,15.4 mm,16.3 mm,11.8 mm,17.1 mm,15.6 µg/mL,15.6 µg/mL,62.5 µg/mL,15.6 µg/mL,,31.2 µg/mL,16.3 mm,15.1 mm,16.9 mm,31.2 µg/mL,62.5 µg/mL,62.5 µg/mL,inactive,inactive,Activity (hTERT-BJ): 26%; Ratio (Aspergillus fumigatus [24]): 1 to 3; Ratio [26]: 1 to 3
C=CCN/C(S)=C(/C#N)C(=O)Nc1ccc(S(=O)(=O)Nc2onc(C)c2C)cc1,21.7 mm,23.8 mm,20.1 mm,21.2 mm,20.1 mm,24.2 mm,0.98 µg/mL,0.49 µg/mL,3.9 µg/mL,1.95 µg/mL,3.9 µg/mL,0.49 µg/mL,22.3 mm,20.4 mm,25.2 mm,0.49 µg/mL,3.9 µg/mL,0.24 µg/mL,inactive,inactive,Ratio [21]: 2; Ratio (Aspergillus fumigatus [24]): 7; Ratio [29]: 2; Ratio (Klebsiella pneumoniae [27]): 4; Ratio (Bacillus subtilis [30]): 2; Ratio (Geotrichum candidum [28]): 6

# Source: ChEMBL document CHEMBL4627352, “New acrylamide-sulfisoxazole conjugates as dihydropteroate synthase inhibitors” (Bioorg Med Chem, 2020)
